# The supplement of paper PMC10307832
# Assays:
# Test in all cases: relative viability (nuclei count vs DMSO), 5 days (fraction); higher = more cells survive
# [1] = test system: 201T
# How it was run: (§1)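 Cells from lung cancer lines were seeded into 1536-well plates and, one day later, dosed by pin tool. Treatments were either a single drug or a fixed dose of an anchor drug with five library-drug doses (not always all listed) in √10 steps. After 5 days, nuclei were stained in a one-step fixation (final 0.05% Triton X-100, 1% formaldehyde, 1 ug/ml Hoechst) and counted on 4× images, and relative viability is the treated-to-vehicle nuclei ratio, as the median of duplicate plates.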
# [2] = test system: ABC-1
# How it was run: as §1
# [3] = test system: BEN
# How it was run: as §1
# [4] = test system: CAL-12T
# How it was run: as §1
# [5] = test system: COR-L 105
# How it was run: as §1
# [6] = test system: COR-L23
# How it was run: as §1
# [7] = test system: EKVX
# How it was run: as §1
# [8] = test system: HARA
# How it was run: as §1
# [9] = test system: HCC-366
# How it was run: as §1
# [10] = test system: LK-2
# How it was run: as §1
# [11] = test system: LU99A
# How it was run: as §1
# [12] = test system: NCI-H1437
# How it was run: as §1
# [13] = test system: NCI-H1650
# How it was run: as §1
# [14] = test system: NCI-H1666
# How it was run: as §1
# [15] = test system: NCI-H2009
# How it was run: as §1
# [16] = test system: NCI-H2023
# How it was run: as §1
# [17] = test system: NCI-H2170
# How it was run: as §1
# [18] = test system: NCI-H3122
# How it was run: as §1
# [19] = test system: NCI-H441
# How it was run: as §1
# [20] = test system: NCI-H661
# How it was run: as §1
# [21] = test system: NCI-H727
# How it was run: as §1
# [22] = test system: NCI-H838
# How it was run: as §1
# [23] = test system: PC-14
# How it was run: as §1
# [24] = test system: SW 900
# How it was run: as §1
smiles,measurement,setting,value
COc1cc(N2CCC(C(N)=O)CC2)ccc1Nc1nc(N)c(Cl)c(Nc2ccccc2S(=O)(=O)C(C)C)n1 [HG-5-88-01] + COc1cccc2cc(-c3nc([C@H]4CC[C@H](C(=O)O)CC4)n4ncnc(N)c34)[nH]c12 [OSI-027] (partner 0.5 µM),relative viability,[1]; first compound 0.04 µM,0.84
same,relative viability,[1]; first compound 0.1265 µM,0.745
same,relative viability,[1]; first compound 0.4 µM,0.428
same,relative viability,[1]; first compound 1.265 µM,0.668
same,relative viability,[1]; first compound 4 µM,0.303
same,relative viability,[2]; first compound 0.04 µM,0.468
same,relative viability,[2]; first compound 0.1265 µM,0.428
same,relative viability,[2]; first compound 0.4 µM,0.399
same,relative viability,[2]; first compound 1.265 µM,0.348
same,relative viability,[2]; first compound 4 µM,0.293
same,relative viability,[3]; first compound 0.04 µM,0.305
same,relative viability,[3]; first compound 0.1265 µM,0.312
same,relative viability,[3]; first compound 0.4 µM,0.262
same,relative viability,[3]; first compound 1.265 µM,0.3
same,relative viability,[3]; first compound 4 µM,0.262
same,relative viability,[4]; first compound 0.04 µM,0.491
same,relative viability,[4]; first compound 0.1265 µM,0.672
same,relative viability,[4]; first compound 0.4 µM,0.612
same,relative viability,[4]; first compound 1.265 µM,0.208
same,relative viability,[4]; first compound 4 µM,0.173
same,relative viability,[5]; first compound 0.04 µM,0.616
same,relative viability,[5]; first compound 0.1265 µM,0.776
same,relative viability,[5]; first compound 0.4 µM,0.531
same,relative viability,[5]; first compound 1.265 µM,0.371
same,relative viability,[5]; first compound 4 µM,0.316
same,relative viability,[6]; first compound 0.04 µM,0.772
same,relative viability,[6]; first compound 0.1265 µM,0.79
same,relative viability,[6]; first compound 0.4 µM,0.646
same,relative viability,[6]; first compound 1.265 µM,0.55
same,relative viability,[6]; first compound 4 µM,0.505
same,relative viability,[7]; first compound 0.04 µM,0.714
same,relative viability,[7]; first compound 0.1265 µM,0.719
same,relative viability,[7]; first compound 0.4 µM,0.724
same,relative viability,[7]; first compound 4 µM,0.535
same,relative viability,[8]; first compound 0.04 µM,0.378
same,relative viability,[8]; first compound 0.1265 µM,0.578
same,relative viability,[8]; first compound 0.4 µM,0.437
same,relative viability,[8]; first compound 1.265 µM,0.121
same,relative viability,[8]; first compound 4 µM,0.144
same,relative viability,[9]; first compound 0.04 µM,1.02
same,relative viability,[9]; first compound 0.1265 µM,0.941
same,relative viability,[9]; first compound 0.4 µM,1.02
same,relative viability,[9]; first compound 1.265 µM,0.577
same,relative viability,[9]; first compound 4 µM,0.6
same,relative viability,[10]; first compound 0.04 µM,0.173
same,relative viability,[10]; first compound 0.1265 µM,0.189
same,relative viability,[10]; first compound 0.4 µM,0.15
same,relative viability,[10]; first compound 1.265 µM,0.173
same,relative viability,[10]; first compound 4 µM,0.175
same,relative viability,[11]; first compound 0.04 µM,0.245
same,relative viability,[11]; first compound 0.1265 µM,0.316
same,relative viability,[11]; first compound 0.4 µM,0.286
same,relative viability,[11]; first compound 1.265 µM,0.279
same,relative viability,[11]; first compound 4 µM,0.263
same,relative viability,[12]; first compound 0.04 µM,0.836
same,relative viability,[12]; first compound 0.1265 µM,0.92
same,relative viability,[12]; first compound 0.4 µM,0.887
same,relative viability,[12]; first compound 1.265 µM,0.735
same,relative viability,[12]; first compound 4 µM,0.83
same,relative viability,[13]; first compound 0.04 µM,0.603
same,relative viability,[13]; first compound 0.1265 µM,0.657
same,relative viability,[13]; first compound 0.4 µM,0.399
same,relative viability,[13]; first compound 1.265 µM,0.32
same,relative viability,[13]; first compound 4 µM,0.265
same,relative viability,[14]; first compound 0.04 µM,0.866
same,relative viability,[14]; first compound 0.1265 µM,0.859
same,relative viability,[14]; first compound 0.4 µM,0.692
same,relative viability,[14]; first compound 1.265 µM,0.605
same,relative viability,[14]; first compound 4 µM,0.532
same,relative viability,[15]; first compound 0.04 µM,0.565
same,relative viability,[15]; first compound 0.1265 µM,0.585
same,relative viability,[15]; first compound 0.4 µM,0.423
same,relative viability,[15]; first compound 1.265 µM,0.444
same,relative viability,[15]; first compound 4 µM,0.353
same,relative viability,[16]; first compound 0.04 µM,0.433
same,relative viability,[16]; first compound 0.1265 µM,0.407
same,relative viability,[16]; first compound 0.4 µM,0.205
same,relative viability,[16]; first compound 1.265 µM,0.109
same,relative viability,[16]; first compound 4 µM,0.127
same,relative viability,[17]; first compound 0.04 µM,0.716
same,relative viability,[17]; first compound 0.1265 µM,0.764
same,relative viability,[17]; first compound 0.4 µM,0.721
same,relative viability,[17]; first compound 1.265 µM,0.238
same,relative viability,[17]; first compound 4 µM,0.601
same,relative viability,[18]; first compound 0.04 µM,0.226
same,relative viability,[18]; first compound 0.1265 µM,0.213
same,relative viability,[18]; first compound 0.4 µM,0.114
same,relative viability,[18]; first compound 1.265 µM,0.149
same,relative viability,[18]; first compound 4 µM,0.129
same,relative viability,[19]; first compound 0.04 µM,0.787
same,relative viability,[19]; first compound 0.1265 µM,0.77
same,relative viability,[19]; first compound 0.4 µM,0.848
same,relative viability,[19]; first compound 1.265 µM,0.437
same,relative viability,[19]; first compound 4 µM,0.421
same,relative viability,[20]; first compound 0.04 µM,0.659
same,relative viability,[20]; first compound 0.1265 µM,0.709
same,relative viability,[20]; first compound 0.4 µM,0.684
same,relative viability,[20]; first compound 1.265 µM,0.428
same,relative viability,[20]; first compound 4 µM,0.569
same,relative viability,[21]; first compound 0.04 µM,0.423
same,relative viability,[21]; first compound 0.1265 µM,0.619
same,relative viability,[21]; first compound 0.4 µM,0.493
same,relative viability,[21]; first compound 1.265 µM,0.424
same,relative viability,[21]; first compound 4 µM,0.355
same,relative viability,[22]; first compound 0.04 µM,0.359
same,relative viability,[22]; first compound 0.1265 µM,0.333
same,relative viability,[22]; first compound 0.4 µM,0.238
same,relative viability,[22]; first compound 1.265 µM,0.247
same,relative viability,[22]; first compound 4 µM,0.173
same,relative viability,[23]; first compound 0.04 µM,0.849
same,relative viability,[23]; first compound 0.1265 µM,1.12
same,relative viability,[23]; first compound 0.4 µM,0.65
same,relative viability,[23]; first compound 1.265 µM,0.321
same,relative viability,[23]; first compound 4 µM,0.218
same,relative viability,[24]; first compound 0.04 µM,0.505
same,relative viability,[24]; first compound 0.1265 µM,0.646
same,relative viability,[24]; first compound 0.4 µM,0.6
same,relative viability,[24]; first compound 1.265 µM,0.57
same,relative viability,[24]; first compound 4 µM,0.381
